Where “and” joins values, the source holds several entries; their conditions need not be identical. Identical values can stand only once. Counter-ions that a name gives are not always drawn.
Test system: A-253 human salivary gland cell line
Assay: iROS assay (DCFH-DA), H2O2-induced oxidative stress in A-253 cells
Format: cell-based
Conditions: for iROS assay - normalised data vs H2O2 (single values) / iROS assay - normalised data vs H2O2, Average / iROS assay - normalized data (single values) / iROS assay - normalized data, Average: H2O2(1 mM), 24 hours; for iROS assay - normalised data vs H2O2 (single values) / iROS assay - normalised data vs H2O2, Average: H2O2 alone = 1; for iROS assay - normalized data (single values) / iROS assay - normalized data, Average: unstimulated cells = 1; for Effect on iROS induced by H2O2 (in words): A-253 cells, 3-1000 μM
Method: Objective: The objective of this study was to investigate the effect of the test compound (CLX 156), on H2O2-induced oxidative stress in human submaxillary gland (HSG) cell line; A-253 cell line, in comparison with pilocarpine hydrochloride. Method: A-253 human salivary gland cell line was cultured in McCoy's 5a Medium Modified (ATCC) with 10% HI-FBS according to manufacturer's guidelines at 37° C. in the presence of 5% CO 2 in a humified incubator. The cells were sub-cultured using Trypsin-EDTA and 10,000 cells seeded into each 48 well cell culture plates with a media volume of 500 μl. The cells were allowed to grow for 48 hours. After 48 hours of culture, the cells were pre-incubated for 1 hour with the positive, reference and test compounds at the desired concentrations (see table 1) followed by the addition of 1 mM H2O2 to the culture media (without the removal of test compounds) to induce oxidative stress. The incubation was continued for 24 hours. After 24 hours of treatment with H2O2, the cells were used to assess iROS as described below. This is a cell-based assay for measuring hydroxyl, peroxyl, or other reactive oxygen species activity within a cell. The assay employs the cell-permeable fluorogenic probe 2′, 7′-Dichlorodihydrofluorescin diacetate (DCFH-DA). In brief, DCFH-DA is diffused into cells and is deacetylated by cellular esterases to non-fluorescent 2′,7′-Dichlorodihydrofluorescin (DCFH), which is rapidly oxidized to highly fluorescent 2′,7′-Dichlorodihydrofluorescein (DCF) by ROS. The fluorescence intensity is proportional to the ROS levels within the cell cytosol. OxiSelect˜ Intracellular ROS Assay Kit was used according to the manufacturer's guidelines (Cell Biolabs). In short, at Day 3 the cells were washed several times with PBS and then treated with 1X DCFH-DA in media and incubated for 30-60 minutes. After DCFH-DA treatment, the oxidative stress was induced by adding 1 mM H2O2 and the fluorescence signals measured after 24 hours using a plate reader.

Row | Compound | iROS assay - normalised data vs H2O2, Average (3 μM) | iROS assay - normalized data, Average (3 μM) | iROS assay - normalised data vs H2O2, Average (10 μM) | iROS assay - normalized data, Average (10 μM) | iROS assay - normalised data vs H2O2, Average (30 μM) | iROS assay - normalized data, Average (30 μM) | iROS assay - normalised data vs H2O2, Average (100 μM) | iROS assay - normalized data, Average (100 μM) | iROS assay - normalised data vs H2O2, Average (300 μM) | iROS assay - normalized data, Average (300 μM) | iROS assay - normalised data vs H2O2, Average (1000 μM) | iROS assay - normalized data, Average (1000 μM) | Effect on iROS induced by H2O2 (in words) | also measured
1 | CC[C@@H]1C(=O)OC[C@@H]1Cc1cncn1C.O=C(O)CCCC[C@@H]1CCSS1 [CLX 156, Pilocarpine-R-(+)-lipoate] | 0.8035 | 6.0747 | 0.7206 | 5.4481 | 0.7536 | 5.6971 | 0.7541 | 5.7012 | 0.6581 | 4.9751 | 0.4638 | 3.5062 | significantly inhibited the iROS induced by H2O2 in A-253 cells in a concentration dependent manner | iROS assay - normalised data vs H2O2 (single values) (3 μM): 0.8216 and 0.8019 and 0.7870; iROS assay - normalized data (single values) (3 μM): 6.2116 and 6.0622 and 5.9502; iROS assay - normalised data vs H2O2 (single values) (10 μM): 0.7047 and 0.6981 and 0.7591; iROS assay - normalized data (single values) (10 μM): 5.3278 and 5.2780 and 5.7386; iROS assay - normalised data vs H2O2 (single values) (30 μM): 0.7294 and 0.7558 and 0.7755; iROS assay - normalized data (single values) (30 μM): 5.5145 and 5.7137 and 5.8631; iROS assay - normalised data vs H2O2 (single values) (100 μM): 0.7887 and 0.7377 and 0.7360; iROS assay - normalized data (single values) (100 μM): 5.9627 and 5.5768 and 5.5643; iROS assay - normalised data vs H2O2 (single values) (300 μM): 0.6224 and 0.6965 and 0.6553; iROS assay - normalized data (single values) (300 μM): 4.7054 and 5.2656 and 4.9544; iROS assay - normalised data vs H2O2 (single values) (1000 μM): 0.4676 and 0.4396 and 0.4841; iROS assay - normalized data (single values) (1000 μM): 3.5353 and 3.3237 and 3.6598; Inhibition of iROS compared with Pilocarpine HCL (in words) (A-253 salivary gland cell culture model): superior to Pilocarpine HCL in inhibiting the iROS induced by H2O2; IC50 (H2O2-induced iROS in A-253 cells, read-out: IC50 for Intracellular ROS (iROS) inhibition): 552 µM
2 | CC[C@@H]1C(=O)OC[C@@H]1Cc1cncn1C [Pilocarpine HCl, pilocarpine hydrochloride, reference compound] | 1.0401 | 7.8631 | 0.9018 | 6.8174 | 0.8952 | 6.7676 | 0.9226 | 6.9751 | 0.9265 | 7.0041 | 0.9040 | 6.8340 | comparatively less in magnitude and showed no clear dose response | iROS assay - normalised data vs H2O2 (single values) (3 μM, hydrochloride): 0.9995 and 1.0274 and 1.0933; iROS assay - normalized data (single values) (3 μM, hydrochloride): 7.5560 and 7.7676 and 8.2656; iROS assay - normalised data vs H2O2 (single values) (10 μM, hydrochloride): 0.8825 and 0.8760 and 0.9468; iROS assay - normalized data (single values) (10 μM, hydrochloride): 6.6722 and 6.6224 and 7.1577; iROS assay - normalised data vs H2O2 (single values) (30 μM, hydrochloride): 0.8941 and 0.8332 and 0.9583; iROS assay - normalized data (single values) (30 μM, hydrochloride): 6.7593 and 6.2988 and 7.2448; iROS assay - normalised data vs H2O2 (single values) (100 μM, hydrochloride): 0.9550 and 0.9336 and 0.8793; iROS assay - normalized data (single values) (100 μM, hydrochloride): 7.2199 and 7.0581 and 6.6473; iROS assay - normalised data vs H2O2 (single values) (300 μM, hydrochloride): 0.9040 and 0.8858 and 0.9896; iROS assay - normalized data (single values) (300 μM, hydrochloride): 6.8340 and 6.6971 and 7.4813; iROS assay - normalised data vs H2O2 (single values) (1000 μM, hydrochloride): 0.8924 and 0.8842 and 0.9352; iROS assay - normalized data (single values) (1000 μM, hydrochloride): 6.7469 and 6.6846 and 7.0705
